According to patent publication US20130338114A1, “COMPOSITIONS FOR INCREASING STRENGTH, MUSCLE MASS, AND LEAN BODY MASS” (Chemi Nutra, priority 2012, published 2013):

Experiments:
[1] = LC/MS/MS analysis of LPA and PA in human plasma after oral PA (Example 8); conditions: in vivo
Excerpt: Lyso-phosphatidic acid (LPA) and phosphatidic acid (PA) from human plasma includes a physical distribution of molecules varying in their fatty acids esterified to the sn-1 and sn-2 positions of glycerol-3-phosphate. The differences in polarity among the fatty acid substituted structures provide a means to resolve individual species under reversed phase chromatographic conditions. This analysis coupled with selective mass spectrometric detection based on molecular weight and distinctive fragmentation for LPA and PA compounds provided the basis for quantitation in the samples described herein. Total LPA and PA content are measured as the sum of the individual species measured.
Human plasma of a subject was analyzed after administration of lyso-phosphatidic acid and phosphatidic acid. One subject consumed 2 g of PA in form of Mediator® (Chemi Nutra). The data from the study provided the composition and concentration of PA and lyso-PA in human blood plasma as a baseline value, and changes in PA and lyso-PA concentrations after 30 minutes, 1 hour, 2 hours, 3 hours and 7 hours. It was determined that PA administration results in increases in lyso-PA and PA concentrations in human blood plasma.
An ultra performance liquid chromatograph with triple quadrupole mass spectrometry (LC/MS/MS) method was utilized to measure the content of LPA and PA molecular species in human plasma. A Waters Acquity™ Ultra-performance liquid chromatography system coupled with an AB Sciex 5500 tandem quadrupole mass spectrometer was the instrumentation platform.
Column: Agilent, Eclipse™ XDB-C8 4.6×150 mm, 1.8 μm, sn. USHAN01857, pn. 927975-906. Flow=1 mL/minute at 40° C. Mobile phases: A=70:28.5:1.5 (/v) methanol:water:acetic acid with 0.08% TEA/v;
The identified molecular species were detected using a multiple reaction monitoring (MRM) technique for the -ve mode exact mass of [M-H]^− and the corresponding fragment 153 amu. […]
The content of each molecular species was calculated from the internal standards present in each sample extract. […]

[2] = system: known non-responder to creatine supplementation; assay: Creatine non-responder Subject B (MP): body weight and total strength, three-week strength training program; type: in vivo, human; conditions: subject two
Protocol: patient two, 185 cm tall, also a known non-responder to creatine supplementation, followed a three-week strength training program while testing whether supplementation with PA-enriched-phospholipid improves creatine response. Total starting total body weight and strength were measured on day one, followed by the training program, consisting of concentric and eccentric isotonic lifting exercises that worked the upper and lower body muscle groups with either free weights or weight machines used once or twice weekly. Strength training was performed three times per week with at least one day of rest between sessions, which alternated between lower and upper body exercises. During the three-week period, a total of 10 training sessions (five upper body and five lower body) were performed. Each exercise included two sets of ten repetitions at 40% and 65% 1RM, followed by two sets of 3 to 5 repetitions at 90% 1RM.
The lower body exercise included seven different exercises: seated leg press, leg curls, standing calf raises, leg extension, inclined leg lift, inverted situps (back extension) and 45° inclined situps. The upper body exercise consisted of seven different exercises: bench press, latissimus pulldown, triceps pulldown, inclined dumbbell curls, seated preacher curls, seated rows, and CyBec Pec Fly. Total upper body and lower body weight lifted were calculated as the average weight lifted during the last three sets multiplied by the average repetition in each set. Total strength was determined as the combined lower and upper total weight lifted. […] Strength was measured on days 1 and 22.
A four-week rest period followed the first three-week training program. The same program was repeated twice, the control was supplemented with creatine monohydrate (Creapure®, Alzchem, Germany), 5 grams per day of five grams creatine monohydrate for 21 days. During the second program, creatine monohydrate was given as for the control program with the addition of 1 gram per day PA-enriched phospholipid (Chemi Nutra, White Bear Lake, Minn.), which contained about 50% PA.

[3] = system: known non-responder to creatine supplementation; assay: Creatine non-responder Subject A (RJ): body weight and total strength, two-week strength training program; type: in vivo, human; conditions: subject one
Protocol: patient one, 198 cm tall, a known non-responder to creatine supplementation, followed a two-week strength training program while testing whether supplementation with PA-enriched-phospholipid improves creatine response. Total starting body weight and strength were measured on day one, followed by the training program, consisting of concentric and eccentric isotonic lifting exercises that worked the upper and lower body muscle groups. Either free weights or weight machines were used once or twice weekly. Strength training was performed three times per week with at least one day of rest between sessions, which alternated between lower and upper body exercises. During the two-week period, a total of six training sessions (three upper and three lower) were performed. Each exercise included two sets of ten repetitions at 30% and 60% 1RM, followed by two sets of 3 to 5 repetitions at 90% 1RM. The lower body exercise included seven different exercises: seated leg press, leg curls, standing calf raises, leg extensions, inclined leg lift, inverted situps (back extension) and 45° inclined situps. The upper body exercise consisted of seven different exercises: bench press, latissimus pulldown, triceps pulldown, inclined dumbbell curls, seated preacher curls, seated rows, and CyBec Pec Fly. Total upper body weight and lower body weight lifted were calculated as the average weight lifted during the last three sets multiplied by the average repetition in each set. Total strength was determined as the combined lower and upper total weight lifted. Total body weight was determined after day 8 and day 15. Strength was measured on days 1 and 15. A four-week rest period followed the first two-week training program. The same program was repeated twice, the control was supplementation of creatine monohydrate (Creapure, Alzchem, Germany) 4 times 5 grams per day for five days of loading, followed by nine days of five grams creatine monohydrate. During the second program, creatine monohydrate was given as for the control program with the addition of PA-enriched phospholipid (Chemi Nutra, White Bear Lake, Minn.) which was about 50% PA.

CCCCCCCCCCCCCCCC(=O)OCC(O)COP(=O)(O)O (centres unmarked) [16:0 LPA]
plasma concentration, Time 0 @10 AM [1]: 51.33 nM

CN(CC(=O)O)C(=N)N [Creatine Supplement, N-methyl-N-guanyl glycine]
body weight, day 1 ([2]; day 1): 81.9 kg | increase in total strength (total weight lifted) ([2]; day 1 to day 22): 5% | body weight, day 10 ([2]; day 10): 81.5 kg | body weight, day 22 ([2]; day 22): 81.2 kg | body weight, day 1 ([3]; day 1): 88.8 kg | increase in total strength (total weight lifted) ([3]; day 1 to day 15): 5% | body weight, day 8 ([3]; day 8): 88.3 kg | body weight, day 15 ([3]; day 15): 88.0 kg

CCCCCCCCCCCCCC(=O)OC[C@@H](O)COP(=O)(O)O [14:0 LPA]
plasma concentration, Time 0 @10 AM [1]: 13.00 nM

CCCCCCCCCCCCCCCCCC(=O)OC[C@@H](O)COP(=O)(O)O [18:0 LPA]
plasma concentration, Time 0 @10 AM [1]: 0.00 nM
